One compound from patent US20130130306A1, “ZN (II) BASED COLORIMETRIC SENSOR AND PROCESS FOR THE PREPARATION THEREOF” (COUNCIL OF SCIENTIFIC & INDUSTRIAL RESEARCH, priority 2010, published 2013) can be followed below.

The subject of series [1] is Bacillus megaterium (Gram +ve). The experiment in a line: Staining of Gram +ve bacteria, light microscopy. Also on record: change in color of bacterial stains: dose or concentration left out as unconfirmed. The class given is cell-based. Here is the method: The isolates of Saccharomyces sp. were cultured in GYE (glucose yeast extract agar) media, Bacillus sp. in Nutrient broth, and Pseudomonas sp. in King's B medium for 24 hour at 37° C. […] of this was taken and was allowed to incubate at 30 to 40° C. along with 100 μl of L.Zn (Scheme 1, Formula 1A) (1.16×10^−4 M) solution. The samples were fixed overnight at room temperature 25-30° C. with 2% (v/v) glutaraldehyde in 0.1 M phosphate buffer at pH 7.5. The samples were then washed with 0.1 M phosphate buffer (pH 7.5) at room temperature 25-30° C. for 1 hour. Post-fixation was carried out in 2% (w/v) osmium tetroxide (OsO4) in the same buffer and was washed once with 0.1 M phosphate buffer for 20 minutes. […]
We also explored the possibility of using L.Zn/L.Zn.α-CD as the staining agent for prokaryotes (Gram +ve and Gram −ve bacterial cells). […] Changes on the cell surfaces on binding of the dye, L.Zn (Scheme 1, Formula 1A) were also evident from the SEM images recorded for Gram −ve and Gram +ve bacteria, in absence and presence of staining agent (FIGS. 11C to 11F). […] The growth profile of Eukaryotic Yeast cells (Saccharomyces cerevisiae) and Prokaryotic bacterial cells ([…]) in an aqueous culture medium in absence and presence of L.Zn (Scheme 1, Formula 1A) are shown in FIG. 12. […]

In series [2] the test system is Pseudomonas fluorescence (Gram −ve). Description: Staining of Gram −ve bacteria, light microscopy and growth kinetics. The class given is cell-based. Particulars: for growth of colonies streaked on nutrient agar plates after incubation with sensor: Pseudomonas species in King's B media, 25° C., 10 mins. Details: change in color of bacterial stains: dose or concentration left out as unconfirmed. Here is the method: The isolates of Saccharomyces sp. were cultured in GYE (glucose yeast extract agar) media, Bacillus sp. in Nutrient broth, and Pseudomonas sp. in King's B medium for 24 hour at 37° C. […] of this was taken and was allowed to incubate at 30 to 40° C. along with 100 μl of L.Zn (Scheme 1, Formula 1A) (1.16×10^−4 M) solution. The samples were fixed overnight at room temperature 25-30° C. with 2% (v/v) glutaraldehyde in 0.1 M phosphate buffer at pH 7.5. The samples were then washed with 0.1 M phosphate buffer (pH 7.5) at room temperature 25-30° C. for 1 hour. Post-fixation was carried out in 2% (w/v) osmium tetroxide (OsO4) in the same buffer and was washed once with 0.1 M phosphate buffer for 20 minutes. Then, the water was removed by a graded water-ethanol series; 25% ethanol for 15 min, 50% ethanol for 15 min, 75% ethanol for 30 min, 90% ethanol for 60 min, absolute alcohol for 30 min. The specimens were rinsed in buffer and coated with gold in a sputter coater (Polaron SC7620) prior to microscopy. The material was examined in a Scanning Electron Microscope (SEM) LEO 1430 VP at an accelerating Voltage of 15 kV.
The isolates of Saccharomyces sp. were cultured in GYE (glucose yeast extract agar) media, Bacillus sp. in Nutrient broth, and Pseudomonas sp. in King's B medium for 24 hour at 37° C. 1001 of this was taken and was allowed to incubate at room temperature along with 1001 of [L.Zn]=1.16×10^−4M solution (pH 7.2, 10 mM HEPES buffer solution). The samples were fixed overnight at 25 to 35° C. with 2% (v/v) glutaraldehyde in 0.1 M phosphate buffer at pH 7.5. The samples were then; washed with 0.1 M phosphate buffer (pH 7.5) at 25 to 35° C. for 1 hour. Post-fixation was carried out in 2% (w/v) osmium tetroxide (OsO4) in the same buffer and was washed once with 0.1 M phosphate buffer for 20 minutes. Then, the water was removed by a graded water-ethanol series; 25% ethanol for 15 min, 50% ethanol for 15 min, 75% ethanol for 30 min, 90% ethanol for 60 min, absolute alcohol for 30 min. The specimens were rinsed in buffer and coated with gold in a sputter coater (Polaron SC7620) prior to microscopy. The material was examined in a scanning electron microscope (SEM) LEO 1430 VP at an accelerating Voltage of 15 kV.
We also explored the possibility of using L.Zn/L.Zn.α-CD as the staining agent for prokaryotes (Gram +ve and Gram −ve bacterial cells). […] As expected stained cells for Gram +ve bacteria appeared longer as compared to those of the stained Gram −ve bacteria. The difference in the staining intensity for two different bacteria with the L.Zn.α-CD (Scheme 2) could be much better understood after going into the depth of cell biology of each bacterial cells and the detailed biochemistry involved while staining; besides, difference in cell structure and cell wall composition of the respective bacteria. […] Changes on the cell surfaces on binding of the dye, L.Zn (Scheme 1, Formula 1A) were also evident from the SEM images recorded for Gram −ve and Gram +ve bacteria, in absence and presence of staining agent (FIGS. 11C to 11F). Difference in the contrasts in the SEM images of the sample surfaces also signifies the non-homogeneous chemical nature of the sample surface. […] The growth profile of Eukaryotic Yeast cells (Saccharomyces cerevisiae) and Prokaryotic bacterial cells ([…]) in an aqueous culture medium in absence and presence of L.Zn (Scheme 1, Formula 1A) are shown in FIG. 12. […]

With `CN(C)c1ccc(N=Nc2ccc(S(=O)(=O)N3CCCNCCNCCCNCC3)cc2)cc1.O=[N+]([O-])[O-].O=[N+]([O-])[O-].[Zn+2]` [L.Zn], the “growth of colonies streaked on nutrient agar plates after incubation with sensor” value is recorded as “colonies of the test microbes grew” in series [1] (Bacillus species in Nutrient broth, sensor 1.0×10^−4 M, 25° C., 10 mins); “colonies of the test microbes grew” in series [2] (sensor 1.0×10^−4 M); “colonies of the test microbes grew” in series [2] (sensor 1.25×10^−4 M); “colonies of the test microbes grew” in series [2] (sensor 1.45×10^−4 M). Further, the “change in color of bacterial stains” value in series [1] (light microscopy) and in series [2] (light microscopy) was “distinct change in color” throughout. Besides, the “binding to ATP released during cell growth, Gram −ve compared to Gram +ve” value in series [2] (extent of absorbance changes and slope, growth kinetics at 600 nm) is “higher binding”.
